The values below come from paper PMC9445877, “Blockade of TMPRSS2-mediated priming of SARS-CoV-2 by lactoferricin” (Frontiers in Immunology, 2022).

“Also recorded” adds a separate entry of the source. Like-named read-outs stand apart in the source and are kept apart here. Peptide text beside a SMILES is read from it.

The subject of data set [1] is Vero cells. Briefly: Cytotoxicity assay in Vero cells (EZ4U). The class given is cell-based, African green monkey. As to conditions: 48 h, without virus, 20 and 40 µg/mL, DMEM/2% FCS, 3 experiments, 80% viability cut-off. Here is the method: Vero cells were seeded into 96-well flat-bottom plates (1×10^4 cells, 80 µl/well) in DMEM medium supplemented with 10% FCS, antibiotics, and non-essential amino acids. On the day of the assay, the medium was exchanged for the reduced serum supplemented DMEM (DMEM/2% FCS) with the peptides or a vehicle only at the designated concentration (100 µl/well). As a positive control, 30% DMSO in DMEM/2% FCS was used. Negative control cells were incubated in DMEM/2% FCS only. Two days (48 h) later, cell viability was assessed as we did previously ([52]) using the EZ4U cell proliferation and cytotoxicity assay substrate (Biomedica Immunoassays, Vienna, Austria).

In data set [2] the target is T1, plasmin (Homo sapiens, UniProt P00747).
T1 construct: purchased Roche Diagnostics GmbH, Mannheim, Germany #10602361001; host or cells: human plasma
Briefly: In vitro proteolysis assay, plasmin. In kind it is biochemical. To be noted: 37°C; for inhibition of proteolytic activity of plasmin (in words): plasmin 10 nM, Tris-HCl buffer, Boc-Gln-Ala-Arg-AMC. How it is done: (§1) Figure 1 Effect of LF and the LF-derived peptides pLF1-pLF3 on the activity of serine proteases. Proteolytic activities of purified TMPRSS2 (A), plasmin (B), elastase (C), and trypsin (D) were measured with or without peptides pLF1, pLF2, pLF3, LF or the control peptide pCTR at 37°C in Tris-HCl buffer using the fluorogenic substrate Boc-Gln-Ala-Arg-AMC. The reaction was monitored using an ELISA reader for the indicated time intervals.
(§2) The proteolytic activities of plasmin (10 nM; from human plasma; #10602361001, Roche Diagnostics GmbH, Mannheim, Germany), trypsin (10 nM; from bovine pancreas; #T1005, Sigma-Aldrich, St. Louis, MO), elastase (20 nM; from porcine pancreas; #E1250, Sigma-Aldrich) and TMPRSS2 (25 nM; recombinant protein produced in mammalian cells; #MBS1193731, MyBioSource, San Diego, CA) were measured in a Nunc black fluorescence-based cell assay plate (Sigma-Aldrich) in Tris-HCl buffer (20 mM, pH 8.0, 150 mM NaCl). The proteases were incubated with or without inhibitory and control compounds at 37°C for 30 min, and then the fluorogenic substrate (Boc-Gln-Ala-Arg-AMC; 25 µM; #BML-P237, ENZO Life Sciences, Lörrach, Germany) was added. The reaction was measured using an ELISA plate reader (Synergy H1 BioTek microplate reader, Winooski, Vermont, U.S., or TECAN GENios, GMI, USA) under the excitation wavelength of 380 nm and the emission wavelength of 460 nm at the indicated time points.
Optionally ( Figure 1B , inset), purified active plasmin (10 mU/mL) was coated in PBS directly on a 96-well Falcon transparent plate for 2 h at 37°C. The wells were then blocked with 1% BSA, washed, and then incubated in PBS at 37°C with the chromogenic plasmin substrate S-2251 (0.8 mM, D-Val-Leu-Lys-pNA, CoaChrom Diagnostica). In this case, the absorbance change at 405 nm was monitored at different time points by using an ELISA plate reader (SpectraMax M5, Molecular Devices).

Data set [3] deals with T2, TMPRSS2 (Homo sapiens, UniProt O15393).
T2 construct: TMPRSS2 (25 nM; recombinant protein produced in mammalian cells; #MBS1193731, MyBioSource, San Diego, CA); purchased MyBioSource, San Diego, CA #MBS1193731; host or cells: mammalian cells
As to the kind of experiment: In vitro proteolysis assay, TMPRSS2, fluorogenic substrate Boc-Gln-Ala-Arg-AMC. In kind it is biochemical. To be noted: 37°C, Boc-Gln-Ala-Arg-AMC; for inhibition of proteolytic activity of TMPRSS2 (in words): Tris-HCl buffer. Here is the method: as §1, §2

For data set [4], the system named is SARS-CoV-2 infection, Vero cells. The class given is cell-based, SARS-CoV-2 (African green monkey cells). To be noted: n = 3.
Data set [5] deals with SARS-CoV-2. In kind it is cell-based. As to conditions: for SARS-CoV-2 infection of permissive cells (in words): summary statement.
Data set [6] has as its system elastase. Briefly: In vitro proteolysis assay, elastase. To be noted: elastase 20 nM; 37°C, Tris-HCl buffer, Boc-Gln-Ala-Arg-AMC. In kind it is biochemical, porcine. How it is done:
as §1
as §2, with “The proteases were incubated with or without inhibitory and control compounds at 37°C for 30 min, and then the fluorogenic substrate (Boc-Gln-Ala-Arg-AMC; 25 µM; #BML-P237, ENZO Life Sciences, Lörrach, Germany) was added.” left out

Data set [7] has as its system SARS-CoV-2 S protein cleavage by TMPRSS2. As to the kind of experiment: SARS-CoV-2 S protein digestion assay with TMPRSS2 (immunoblot). As to conditions: S protein 1 µg, TMPRSS2 25 nM, 120 min, 37°C, Tris-HCl 20 mM pH 7.5, 150 mM NaCl, n = 4. In kind it is biochemical. In general terms: Immunoblotting shows a protein as a band on a membrane.

T2 sequence (O15393 256-492 limits assumed): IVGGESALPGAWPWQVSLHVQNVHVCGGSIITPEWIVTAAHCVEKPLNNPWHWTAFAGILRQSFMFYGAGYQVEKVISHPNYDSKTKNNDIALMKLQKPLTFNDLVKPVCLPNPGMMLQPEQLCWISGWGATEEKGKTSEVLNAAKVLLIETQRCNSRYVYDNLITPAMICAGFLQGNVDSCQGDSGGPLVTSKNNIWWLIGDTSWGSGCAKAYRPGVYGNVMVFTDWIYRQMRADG
T2 sequence (O15393 106-255 limits assumed): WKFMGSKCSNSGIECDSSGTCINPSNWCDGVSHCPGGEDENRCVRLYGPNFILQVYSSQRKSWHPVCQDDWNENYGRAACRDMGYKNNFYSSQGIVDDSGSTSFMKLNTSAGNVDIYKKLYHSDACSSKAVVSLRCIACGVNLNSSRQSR
T1 sequence (P00747 581-810 limits assumed): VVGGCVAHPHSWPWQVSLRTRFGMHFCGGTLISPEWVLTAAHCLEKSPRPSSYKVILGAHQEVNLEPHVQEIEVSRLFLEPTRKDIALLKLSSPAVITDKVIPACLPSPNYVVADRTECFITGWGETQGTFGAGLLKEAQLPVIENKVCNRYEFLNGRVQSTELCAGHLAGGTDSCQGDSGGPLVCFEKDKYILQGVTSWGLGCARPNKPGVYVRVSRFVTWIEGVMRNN
T1 sequence (P00747 97-580 limits assumed): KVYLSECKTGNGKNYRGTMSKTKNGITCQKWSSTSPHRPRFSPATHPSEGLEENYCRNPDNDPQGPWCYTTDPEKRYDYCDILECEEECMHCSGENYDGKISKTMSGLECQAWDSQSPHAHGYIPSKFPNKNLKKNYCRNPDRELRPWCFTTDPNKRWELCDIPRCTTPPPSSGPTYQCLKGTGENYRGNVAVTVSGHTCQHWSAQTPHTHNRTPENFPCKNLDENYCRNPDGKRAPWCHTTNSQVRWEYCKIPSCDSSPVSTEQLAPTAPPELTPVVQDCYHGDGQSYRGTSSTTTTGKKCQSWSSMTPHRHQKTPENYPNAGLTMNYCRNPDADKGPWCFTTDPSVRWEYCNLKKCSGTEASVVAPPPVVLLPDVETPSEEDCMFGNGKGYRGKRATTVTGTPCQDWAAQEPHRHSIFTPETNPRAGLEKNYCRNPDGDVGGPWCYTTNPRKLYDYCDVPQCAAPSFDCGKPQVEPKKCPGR

`C[S+](C)[O-]` [30% DMSO]: in data set [1], the “cytotoxicity, Vero cells (in words)” value is given as “significantly (p***<0.0005) affected viability of Vero cells”.

Turning to `CC(C)[C@H](NC(=O)[C@H](C)NC(=O)[C@H](CS)NC(=O)[C@H](Cc1c[nH]c2ccccc12)NC(=O)[C@H](CCC(N)=O)NC(=O)[C@@H](NC(=O)[C@H](CO)NC(=O)[C@H](CCCNC(=N)N)NC(=O)[C@H](CCCNC(=N)N)NC(=O)[C@H](CCCNC(=N)N)NC(=O)CN)C(C)C)C(=O)N[C@@H](CO)C(=O)N[C@@H](CCC(N)=O)C(=O)N1CCC[C@H]1C(=O)N[C@@H](CCC(=O)O)C(=O)N[C@@H](C)C(=O)N[C@H](C(=O)N[C@@H](CCCCN)C(=O)N[C@@H](CS)C(=O)O)[C@@H](C)O` [pLF1] (H-GRRRSVQWCAVSQPEATKC-OH), the IC50 in data set [2] (Figure 1B inset: plasmin 10 mU/mL coated in PBS, chromogenic substrate S-2251 0.8 mM, PBS, absorbance 405 nm, relative IC50, 4PL fit, experiments at least three times, read-out: half-maximum inhibitory concentration (IC50), plasmin (converted)) was 3.19 µM. For the same molecule, in data set [3] (at 40 - 80 µg/mL), the “maximum inhibition of TMPRSS2 (plateau)” value was ~ 40%.

In the case of “GRRRRSVQWCAVSQPEATKCFQWQRNMRKVRGPPVSCIKRDSPIQCIQA [LFC, natural peptide of 49 amino acids from the N-terminus of human LF, produced by pepsin cleavage]”, the “inhibition of proteolytic activity of TMPRSS2 (in words)” value (“inhibition … of TMPRSS2 (in words)” for short) was “inhibitory effect on TMPRSS2 comparable to that of pLF1” in data set [3] and “significantly inhibited” in data set [3] (listed as lactoferricin). In data set [4] (80 µg/mL, pre-incubation approx. 1 h), the “infection rate of replication-competent SARS-CoV-2 in Vero cells (in words)” value was “reduced the infection rate”. In data set [5] (Vero and Calu-3 cells, summary statement in Discussion), the “inhibition of SARS-CoV-2 infection in Vero and Calu-3 cells” value was 40-50%. Moreover, the “SARS-CoV-2 infection of permissive cells (in words)” value in data set [5] is “inhibits cell entry of SARS-CoV-2 through blocking TMPRSS2-mediated virus priming”; in data set [5] (listed as lactoferricin) it was “significantly inhibited”.

For “NFRTKSCPLELAKELKLCS [pCTR, negative control peptide, a scrambled variant of pLF3, reference compound]”, in data set [2], the “inhibition of proteolytic activity of plasmin (in words)” value was “neither full-length LF nor a control peptide (pCTR), was able to inhibit; also recorded: neither full-length LF nor other tested peptides derived from LF, nor the control peptide pCTR, significantly reduced”. The “inhibition of proteolytic activity of elastase (in words)” value in data set [6] is “neither full-length LF nor other tested peptides derived from LF, nor the control peptide pCTR, significantly reduced”. For the same molecule, in data set [3], the “inhibition … of TMPRSS2 (in words)” value is given as “neither full-length LF nor pCTR inhibited; also recorded: neither full-length LF nor other tested peptides derived from LF, nor the control peptide pCTR, significantly reduced”. In data set [4] (pre-incubation 40-60 min), the “inhibition of SARS-CoV-2 infection, Vero cells (in words)” value is “did not show any inhibitory potential”. In addition, the “cleavage of SARS-CoV-2 S protein by TMPRSS2 (in words)” value in data set [7] was “no such effect was seen”.

With aprotinin [reference compound], the “inhibition of proteolytic activity of plasmin (in words)” value in data set [2] is reported as “blunted the proteolytic activity of both proteases”. Moreover, the “inhibition … of TMPRSS2 (in words)” value in data set [3] is listed as “blunted the proteolytic activity of both proteases”.
